# How the values were obtained:
# Cytochrome P450 3A4 = Cytochrome P450 3A4 (Homo sapiens, UniProt P08684); assay: Inhibition of CYP3A4 (unknown origin); type: ADME
# [1] = In vivo inhibition of NLRP3 in LPS/ATP-induced C57BL/6 mouse model of acute peritonitis assessed as reduction in IL-1beta level at 3 mg/kg, po preadministered with compound for 1 hrs followed by LPS stimulation for 2 hrs and measured 15 mins after ATP addition by ELISA relative to control; type: functional; conditions: time 3.25 hrs
# [2] = Drug metabolism in human liver microsomes assessed as N-demethylation of piperidine ring mediated metabolite formation; type: ADME, Microsome
# [3] = Lipophilicity, logD of compound at pH 7.4; type: physicochemical; conditions: buffer
# [4] = Half-life in Beagle dog at 1 mg/kg, po or 0.1 mg/kg, iv measured after 24 hrs by LC-MS/MS analysis; type: ADME, organism-based, Canis lupus familiaris; conditions: in vivo
# [5] = In vivo inhibition of NLRP3 in LPS/ATP-induced C57BL/6 mouse model of acute peritonitis assessed as reduction in IL-1beta level at 100 mg/kg, po preadministered with compound for 1 hrs followed by LPS stimulation for 2 hrs and measured 15 mins after ATP addition by ELISA relative to control; type: functional; conditions: time 3.25 hrs
# Cytochrome P450 2D6 = Cytochrome P450 2D6 (Homo sapiens, UniProt P10635); assay: Inhibition of CYP2D6 (unknown origin); type: ADME
# [6] = target: Nuclear factor NF-kappa-B complex (Homo sapiens, UniProt P19838+Q00653+Q04206); assay: Inhibition of NF-kappaB in PMA-differentiated human THP-1 cells assessed as reduction in TNF-alpha release preincubated with compound for 1 hrs followed by Pam3CSK4 stimulation and measured after 3 hrs by HTRF assay; type: cell-based
# [7] = Dose normalized AUC in Beagle dog at 1 mg/kg, po measured after 24 hrs by LC-MS/MS analysis; type: ADME, organism-based, Canis lupus familiaris; conditions: in vivo
# [8] = Oral bioavailability in Sprague-Dawley rat at 10 mg/kg measured after 24 hrs by LC-MS/MS analysis; type: ADME, organism-based; conditions: in vivo
# [9] = Drug metabolism in dog liver microsomes assessed as N-demethylation of piperidine ring mediated metabolite formation; type: ADME, Canis lupus familiaris, Microsome
# [10] = Protein binding in human plasma; type: ADME, cell-free; conditions: read-out: PPB (converted)
# [11] = Drug metabolism in human liver microsome assessed as thiophene oxidation mediated metabolite formation; type: ADME; conditions: microsomes
# [12] = Oral bioavailability in C57BL/6 mouse at 3 mg/kg measured after 24 hrs by LC-MS/MS analysis; type: ADME, organism-based; conditions: in vivo
# [13] = Clearance in Sprague-Dawley rat assessed as hepatic blood flow at 10 mg/kg, po or 1 mg/kg, iv measured after 24 hrs by LC-MS/MS analysis; type: ADME, organism-based, Liver; conditions: in vivo
# [14] = Volume of distribution at steady state in Beagle dog at 1 mg/kg, po or 0.1 mg/kg, iv measured after 24 hrs by LC-MS/MS analysis; type: ADME, organism-based, Canis lupus familiaris; conditions: in vivo
# [15] = Metabolic stability in human liver microsomes assessed as intrinsic clearance; type: ADME, Microsome; conditions: read-out: CLH
# [16] = Clearance in dog liver microsomes; type: ADME, Canis lupus familiaris, Microsome; conditions: read-out: CLH
# [17] = Drug concentration in blood of C57BL/6 mouse model of acute peritonitis at 10 mg/kg, po preadministered with compound for 1 hrs followed by LPS stimulation for 2 hrs and measured 15 mins after ATP addition by HPLC-MS/MS analysis; type: ADME, organism-based; conditions: whole blood, read-out: Ct
# [18] = Protein binding in mouse plasma; type: ADME, cell-free; conditions: read-out: PPB (converted)
# [19] = Equilibrium solubility of compound in DMSO at pH 6.8 by shake flask method; type: physicochemical
# [20] = Thermodynamic solubility of compound at pH 6.8; type: physicochemical; conditions: buffer, read-out: Therm_solubility
# [21] = Half-life in Sprague-Dawley rat at 10 mg/kg, po or 1 mg/kg, iv measured after 24 hrs by LC-MS/MS analysis; type: ADME, organism-based; conditions: in vivo
# [22] = Oral bioavailability in Beagle dog at 1 mg/kg measured after 24 hrs by LC-MS/MS analysis; type: ADME, organism-based, Canis lupus familiaris; conditions: in vivo
# [23] = Drug metabolism in rat liver microsome assessed as thiophene oxidation mediated metabolite formation; type: ADME; conditions: microsomes
# [24] = Volume of distribution at steady state in Sprague-Dawley rat at 10 mg/kg, po or 1 mg/kg, iv measured after 24 hrs by LC-MS/MS analysis; type: ADME, organism-based; conditions: in vivo
# [25] = Volume of distribution at steady state in C57BL/6 mouse at 3 mg/kg, po or 1 mg/kg, iv measured after 24 hrs by LC-MS/MS analysis; type: ADME, organism-based; conditions: in vivo
# [26] = Half-life in C57BL/6 mouse at 3 mg/kg, po or 1 mg/kg, iv measured after 24 hrs by LC-MS/MS analysis; type: ADME, organism-based; conditions: in vivo
# [27] = target: Synaptic vesicular amine transporter (Homo sapiens, UniProt Q05940); assay: Inhibition of VMAT-2 (unknown origin)
# [28] = Dose normalized AUC in Sprague-Dawley rat at 10 mg/kg, po measured after 24 hrs by LC-MS/MS analysis; type: ADME, organism-based; conditions: in vivo
# [29] = Clearance in mouse liver microsomes; type: ADME, Microsome; conditions: read-out: CLH
# [30] = Clearance in C57BL/6 mouse assessed as hepatic blood flow at 3 mg/kg, po or 1 mg/kg, iv measured after 24 hrs by LC-MS/MS analysis; type: ADME, organism-based, Liver; conditions: in vivo
# [31] = Oral bioavailability in C57BL/6 mouse measured after 24 hrs by LC-MS/MS analysis; type: ADME, organism-based; conditions: in vivo
# [32] = In vivo inhibition of NLRP3 in LPS/ATP-induced C57BL/6 mouse model of acute peritonitis assessed as reduction in IL-1beta level at 30 mg/kg, po preadministered with compound for 1 hrs followed by LPS stimulation for 2 hrs and measured 15 mins after ATP addition by ELISA relative to control; type: functional; conditions: time 3.25 hrs
# [33] = target: Voltage-gated inwardly rectifying potassium channel KCNH2 (Homo sapiens, UniProt Q12809); assay: Displacement of [3H]-dofetilide from human ERG; type: toxicity
# [34] = Drug concentration in blood of C57BL/6 mouse model of acute peritonitis at 30 mg/kg, po preadministered with compound for 1 hrs followed by LPS stimulation for 2 hrs and measured 15 mins after ATP addition by HPLC-MS/MS analysis; type: ADME, organism-based; conditions: whole blood, read-out: Ct
# [35] = Drug concentration in blood of C57BL/6 mouse model of acute peritonitis at 50 mg/kg, po preadministered with compound for 1 hrs followed by LPS stimulation for 2 hrs and measured 15 mins after ATP addition by HPLC-MS/MS analysis; type: ADME, organism-based; conditions: whole blood, read-out: Ct
# [36] = AUC (0 to infinity) in C57BL/6 mouse at 3 mg/kg, po measured after 24 hrs by LC-MS/MS analysis; type: ADME, organism-based; conditions: in vivo
# Cytochrome P450 2C9 = Cytochrome P450 2C9 (Homo sapiens, UniProt P11712); assay: Inhibition of CYP2C9 (unknown origin); type: ADME
# [37] = Drug concentration in blood of C57BL/6 mouse model of acute peritonitis at 3 mg/kg, po preadministered with compound for 1 hrs followed by LPS stimulation for 2 hrs and measured 15 mins after ATP addition by HPLC-MS/MS analysis; type: ADME, organism-based; conditions: whole blood, read-out: Ct
# [38] = Clearance in rat liver microsomes; type: ADME, Microsome; conditions: read-out: CLH
# [39] = Drug metabolism in rat liver microsomes assessed as N-demethylation of piperidine ring mediated metabolite formation; type: ADME, Microsome
# [40] = Clearance in Beagle dog assessed as hepatic blood flow at 1 mg/kg, po or 0.1 mg/kg, iv measured after 24 hrs by LC-MS/MS analysis; type: ADME, organism-based, Canis lupus familiaris, Liver; conditions: in vivo
# Cytochrome P450 2C9, sequence (P11712 whole entry): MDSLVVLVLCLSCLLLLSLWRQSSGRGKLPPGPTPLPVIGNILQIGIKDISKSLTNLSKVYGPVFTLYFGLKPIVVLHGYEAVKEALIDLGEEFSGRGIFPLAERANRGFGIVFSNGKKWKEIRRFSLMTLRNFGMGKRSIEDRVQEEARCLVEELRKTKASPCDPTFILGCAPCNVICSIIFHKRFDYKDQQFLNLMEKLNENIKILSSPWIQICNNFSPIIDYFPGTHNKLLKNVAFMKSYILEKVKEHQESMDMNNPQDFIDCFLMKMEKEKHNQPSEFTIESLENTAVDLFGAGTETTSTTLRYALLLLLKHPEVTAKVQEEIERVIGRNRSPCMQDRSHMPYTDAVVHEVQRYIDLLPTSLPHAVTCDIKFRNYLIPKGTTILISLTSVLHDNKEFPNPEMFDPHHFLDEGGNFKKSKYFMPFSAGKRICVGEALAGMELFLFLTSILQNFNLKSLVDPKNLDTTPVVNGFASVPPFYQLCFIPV
# Voltage-gated inwardly rectifying potassium channel KCNH2, sequence (Q12809 whole entry): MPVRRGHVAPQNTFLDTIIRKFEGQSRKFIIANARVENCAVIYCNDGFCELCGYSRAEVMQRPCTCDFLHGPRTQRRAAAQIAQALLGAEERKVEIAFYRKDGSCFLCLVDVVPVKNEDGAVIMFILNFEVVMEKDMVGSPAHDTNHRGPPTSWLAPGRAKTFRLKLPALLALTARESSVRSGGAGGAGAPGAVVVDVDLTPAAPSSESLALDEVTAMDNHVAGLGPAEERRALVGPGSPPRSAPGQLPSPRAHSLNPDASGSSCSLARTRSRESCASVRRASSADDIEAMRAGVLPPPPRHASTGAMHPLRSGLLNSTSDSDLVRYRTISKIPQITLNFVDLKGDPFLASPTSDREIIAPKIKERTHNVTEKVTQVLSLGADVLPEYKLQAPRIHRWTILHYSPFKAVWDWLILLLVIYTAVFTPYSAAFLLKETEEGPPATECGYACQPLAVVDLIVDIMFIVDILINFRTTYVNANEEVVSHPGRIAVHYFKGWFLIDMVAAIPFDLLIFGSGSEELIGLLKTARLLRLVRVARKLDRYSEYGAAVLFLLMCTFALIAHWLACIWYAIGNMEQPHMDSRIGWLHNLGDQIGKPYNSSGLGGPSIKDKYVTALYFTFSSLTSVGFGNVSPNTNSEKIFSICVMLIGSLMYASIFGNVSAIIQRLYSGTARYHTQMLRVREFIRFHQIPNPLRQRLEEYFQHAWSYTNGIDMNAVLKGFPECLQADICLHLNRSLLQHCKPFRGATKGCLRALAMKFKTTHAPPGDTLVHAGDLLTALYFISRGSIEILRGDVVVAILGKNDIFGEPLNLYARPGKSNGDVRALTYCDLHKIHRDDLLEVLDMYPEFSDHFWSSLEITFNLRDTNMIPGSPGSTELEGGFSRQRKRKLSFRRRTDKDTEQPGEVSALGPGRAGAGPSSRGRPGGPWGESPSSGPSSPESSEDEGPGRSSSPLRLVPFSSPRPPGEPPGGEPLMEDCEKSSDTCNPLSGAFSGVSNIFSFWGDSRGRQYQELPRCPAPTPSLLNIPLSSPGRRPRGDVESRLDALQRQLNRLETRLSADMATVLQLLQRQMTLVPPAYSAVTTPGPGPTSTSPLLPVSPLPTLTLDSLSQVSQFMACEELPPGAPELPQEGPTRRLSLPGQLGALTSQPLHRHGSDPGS
# Cytochrome P450 2D6, sequence (P10635 whole entry): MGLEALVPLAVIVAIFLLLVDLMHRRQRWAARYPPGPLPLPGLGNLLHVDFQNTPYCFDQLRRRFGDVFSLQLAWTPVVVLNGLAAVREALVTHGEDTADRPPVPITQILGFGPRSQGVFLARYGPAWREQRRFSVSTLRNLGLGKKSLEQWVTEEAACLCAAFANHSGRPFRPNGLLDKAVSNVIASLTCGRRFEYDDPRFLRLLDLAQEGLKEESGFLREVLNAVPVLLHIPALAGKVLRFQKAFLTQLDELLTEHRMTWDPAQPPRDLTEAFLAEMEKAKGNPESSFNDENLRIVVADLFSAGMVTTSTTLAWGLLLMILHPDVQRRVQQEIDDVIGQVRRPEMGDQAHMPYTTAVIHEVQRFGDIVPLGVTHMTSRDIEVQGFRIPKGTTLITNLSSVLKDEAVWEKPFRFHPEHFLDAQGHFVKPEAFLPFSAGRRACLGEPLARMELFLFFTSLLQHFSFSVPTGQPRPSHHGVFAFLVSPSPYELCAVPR
# Cytochrome P450 3A4, sequence (P08684 whole entry): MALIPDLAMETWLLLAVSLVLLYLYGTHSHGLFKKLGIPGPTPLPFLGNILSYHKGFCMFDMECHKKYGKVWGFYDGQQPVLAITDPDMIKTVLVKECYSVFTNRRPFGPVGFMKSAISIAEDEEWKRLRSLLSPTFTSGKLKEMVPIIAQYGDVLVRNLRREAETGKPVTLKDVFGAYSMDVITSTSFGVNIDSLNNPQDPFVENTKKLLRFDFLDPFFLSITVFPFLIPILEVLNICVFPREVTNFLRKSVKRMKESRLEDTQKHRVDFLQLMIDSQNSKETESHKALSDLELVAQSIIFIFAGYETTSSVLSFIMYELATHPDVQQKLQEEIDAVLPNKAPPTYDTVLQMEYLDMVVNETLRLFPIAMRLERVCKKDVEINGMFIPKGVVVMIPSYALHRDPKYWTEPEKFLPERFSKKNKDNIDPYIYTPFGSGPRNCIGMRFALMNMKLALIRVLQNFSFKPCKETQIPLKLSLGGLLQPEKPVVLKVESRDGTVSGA
# Synaptic vesicular amine transporter, sequence (Q05940 whole entry): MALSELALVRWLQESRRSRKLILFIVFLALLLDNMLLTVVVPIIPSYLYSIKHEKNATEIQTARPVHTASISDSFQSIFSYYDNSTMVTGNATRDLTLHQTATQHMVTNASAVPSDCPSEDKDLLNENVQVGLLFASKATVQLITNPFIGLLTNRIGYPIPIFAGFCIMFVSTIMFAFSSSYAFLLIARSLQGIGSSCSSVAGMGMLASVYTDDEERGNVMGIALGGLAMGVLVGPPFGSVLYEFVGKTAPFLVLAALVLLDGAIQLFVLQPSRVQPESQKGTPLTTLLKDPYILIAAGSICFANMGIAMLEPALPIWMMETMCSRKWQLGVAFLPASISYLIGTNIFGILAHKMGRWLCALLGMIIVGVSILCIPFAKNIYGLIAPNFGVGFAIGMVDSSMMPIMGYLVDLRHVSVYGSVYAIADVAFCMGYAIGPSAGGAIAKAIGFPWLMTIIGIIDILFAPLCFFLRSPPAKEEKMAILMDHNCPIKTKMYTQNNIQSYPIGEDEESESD
# Nuclear factor NF-kappa-B complex, sequence (P19838 1-433 limits assumed): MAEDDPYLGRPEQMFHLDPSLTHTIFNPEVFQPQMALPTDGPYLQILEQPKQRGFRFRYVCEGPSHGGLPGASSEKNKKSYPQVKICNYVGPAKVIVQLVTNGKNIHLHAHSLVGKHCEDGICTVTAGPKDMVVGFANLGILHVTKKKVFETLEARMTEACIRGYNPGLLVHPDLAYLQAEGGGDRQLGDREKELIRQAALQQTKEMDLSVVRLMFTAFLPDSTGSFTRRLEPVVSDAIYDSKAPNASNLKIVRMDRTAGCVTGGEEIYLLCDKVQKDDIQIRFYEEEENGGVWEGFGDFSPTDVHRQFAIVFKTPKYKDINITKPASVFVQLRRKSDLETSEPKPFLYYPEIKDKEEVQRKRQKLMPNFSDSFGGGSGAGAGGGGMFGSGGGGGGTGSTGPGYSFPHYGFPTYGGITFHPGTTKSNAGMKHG
# Nuclear factor NF-kappa-B complex, sequence (Q00653 1-454 limits assumed): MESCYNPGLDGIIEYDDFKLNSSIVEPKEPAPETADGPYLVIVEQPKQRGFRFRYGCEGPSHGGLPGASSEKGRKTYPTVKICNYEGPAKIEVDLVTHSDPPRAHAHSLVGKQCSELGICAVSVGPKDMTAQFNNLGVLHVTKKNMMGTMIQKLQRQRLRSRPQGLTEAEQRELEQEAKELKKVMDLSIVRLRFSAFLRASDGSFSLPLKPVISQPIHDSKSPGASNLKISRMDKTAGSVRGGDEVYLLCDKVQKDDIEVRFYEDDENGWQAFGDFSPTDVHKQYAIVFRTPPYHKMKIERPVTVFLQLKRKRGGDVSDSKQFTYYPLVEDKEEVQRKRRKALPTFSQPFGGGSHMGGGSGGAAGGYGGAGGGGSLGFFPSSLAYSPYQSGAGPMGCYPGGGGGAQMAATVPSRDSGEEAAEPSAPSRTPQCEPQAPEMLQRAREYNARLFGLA
# Nuclear factor NF-kappa-B complex, sequence (Q04206 whole entry): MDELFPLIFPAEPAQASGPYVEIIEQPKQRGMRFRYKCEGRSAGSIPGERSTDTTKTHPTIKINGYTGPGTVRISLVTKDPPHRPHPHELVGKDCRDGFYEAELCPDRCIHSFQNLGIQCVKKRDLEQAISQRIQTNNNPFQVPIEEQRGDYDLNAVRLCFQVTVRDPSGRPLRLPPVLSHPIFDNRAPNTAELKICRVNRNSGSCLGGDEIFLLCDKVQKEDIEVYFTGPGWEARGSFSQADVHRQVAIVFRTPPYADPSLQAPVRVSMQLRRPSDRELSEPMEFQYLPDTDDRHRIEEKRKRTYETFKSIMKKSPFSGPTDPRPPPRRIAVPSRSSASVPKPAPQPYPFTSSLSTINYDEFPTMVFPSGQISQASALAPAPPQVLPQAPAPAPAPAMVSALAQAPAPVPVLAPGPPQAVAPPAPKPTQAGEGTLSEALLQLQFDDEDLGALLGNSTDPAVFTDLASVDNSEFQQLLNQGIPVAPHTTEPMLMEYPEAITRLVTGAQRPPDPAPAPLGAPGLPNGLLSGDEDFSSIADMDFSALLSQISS
smiles,measurement,setting,value
CN1CCC[C@@H](NC(=O)Cn2nc(C(C)(C)O)n3c(cc4sc(Cl)cc43)c2=O)C1,IC50,Cytochrome P450 3A4,> 25 µM
same,inhibition in vivo at 3 mg/kg,[1],34%
same,Drug metabolism,[2],Metabolite_Detected
same,logD,[3],2.3
same,half-life,[4],5.7 h
same,inhibition in vivo at 100 mg/kg,[5],98%
same,IC50,Cytochrome P450 2D6,> 25 µM
same,IC50,[6],> 100 µM
same,AUC/dose,[7],2530 nmol·h/L
same,bioavailability,[8],63%
same,Drug metabolism,[9],Metabolite_Detected
same,fraction unbound,[10],0.15
same,Drug metabolism,[11],Metabolite_Notdetected
same,bioavailability,[12],36%
same,LBF,[13],40%
same,Vdss,[14],4.1 L/kg
same,microsomal CLint,[15],38 µL/min/mg
same,microsomal CLint,[16],39 µL/min/mg
same,concentration at 3.25 h,[17],163 nM
same,fraction unbound,[18],0.03
same,solubility,[19],> 1000 µM
same,solubility thermodynamic,[20],159 µg/mL
same,half-life,[21],3.5 h
same,bioavailability,[22],89%
same,Drug metabolism,[23],Metabolite_Notdetected
same,Vdss,[24],5.5 L/kg
same,Vdss,[25],3.9 L/kg
same,half-life,[26],1 h
same,IC50,[27],6.5 µM
same,AUC/dose,[28],712 nmol·h/L
same,microsomal CLint,[29],103 µL/min/mg
same,LBF,[30],40%
same,bioavailability,[31],36%
same,inhibition in vivo at 30 mg/kg,[32],91%
same,IC50,[33],> 30 µM
same,concentration at 3.25 h,[34],1060 nM
same,concentration at 3.25 h,[35],1680 nM
same,AUC(0-inf),[36],0.718 µM·h
same,IC50,Cytochrome P450 2C9,> 25 µM
same,concentration at 3.25 h,[37],70 nM
same,microsomal CLint,[38],100 µL/min/mg
same,Drug metabolism,[39],Metabolite_Detected
same,LBF,[40],40%
